Assay results: US7897640B2 (priority 2003, dated 2011)
Values after ≈ are worked out from the molar mass of the structure shown. Read-outs that look alike come from different tables or passages of the source.

Assays:
[1] = solubility; assay type: physicochemical
[2] = test system: AZT-resistant strain HIV-1 018c; conditions: PBMC, AZT-resistant HIV-1 018c
[3] = test system: human T lymphocytes MT-4; experiment: cytotoxicity by MTT in MT-4 culture; conditions: MT-4 culture with HIV-1 IIIB, 96 hours
[4] = test system: HIV-1 IIIB; experiment: HIV-1 P24 antigen inhibition in MT-4 culture
Experimental: MT-4 cell suspension was counted, then 100 μl of suspension (2×10^5 cells/ml) was seeded into 96-well cell culture plate, 50 μl liquor of 2× diluted medicament or 4-5× diluted positive medicament AZT (8 concentrations) was added, respectively, and 50 μl virus suspension with proper titer was add concurrently. Each dilution was repeated in 3 wells and cell control group and virus control group were established. They were incubated at 37° C., 5% CO2 saturated humidity incubator and the cytopathy was observed everyday. On the fourth day after administration (96 hours), the supernatants were sucked out and stored at −20° C. for measuring HIV-1-P24 antigen titer. Accordingly, the inhibition effect of medicament could be calculated, and the cells were dyed with MTT to measure the cytotoxicity.
The medicated cell supernatants infected with MT-4 were diluted after being thawed. HIV-1 P24 titer was measured according to the operation procedure described in HIV-1 P24 antigen kit.
[formula] 2.2.2 Reed & Muench Method for Calculating CC50 and EC50 of Medicament in Cell Culture
[formula] 2.2.3. Calculation Method of Selection Index (SI) of HIV-1 P24 Antigen in Cell Culture SI=CC50/EC50 3.

[5] = test system: human peripheral blood mononuclear cell (PBMC); experiment: cytotoxicity by MTT in HIV-infected PBMC culture; conditions: 96 hours
Experimental: (§1) 10 μl MTT dye (5 mg/ml) was added to each well, and then incubated at 37° C., 5% CO2 saturated humidity incubator for 4 hours. 100 μl 50% DMF-17% Triton X-100 destainer was added to each well and the mixtures were kept at 37° C. overnight. Then OD570nm values were measured at 570 nm with a luminometer to calculate the median cytotoxicity concentration of medicament (CC50).
(§2) The fresh normal human venous blood was taken and PBMC was separated using FiColl separation solution. The 1.5×10^5 cells/ml suspension prepared with the culture fluid containing PHA was seeded into the culture bottle and incubated in the incubator (37° C., 5% CO2) for 72 hours. The cells were collected with cell scrapers then were infected with the 10^−2 viral liquid of AZT-sensitive (018a) or AZT-resistant (018c) viral strain. After absorption for 2 hours, the non-absorbed viruses were washed with serum-free 1640 culture medium. The infected cells were prepared into 1×10^6 cells/ml with the culture fluid, and then were seeded into the 96-well culture board in 100 μl/well. At the same time, 100 μl liquor of 2× diluted AKJ-2 or 5× diluted positive control medicament AZT with different concentrations was added. The cell control group and virus control group were established. Four days (96 hours) after incubating under 37° C., 5% CO2, the supernatants were sucked out and stored at −20° C. to measure HIV-1-P24 antigen titer and calculate the inhibition effect of the medicament. The cells were dyed with MTT to measure the cytotoxicity.

[6] = test system: AZT-sensitive strain HIV-1 018a; experiment: HIV-1 P24 antigen inhibition in PBMC, AZT-sensitive strain
[7] = test system: HIV-1 IIIB; experiment: HIV-1 P24 antigen inhibition in chronically infected H9 cells
Experimental: HIV-1 P24 antigen titer was measured according to the operation procedures stated in HIV-1 P24 antigen kit.
100 μl (2×10^5 cells/ml) of H9 cells suspension was seeded into 96-well cell culture plate. Then, 100 μl liquor of 2× diluted medicament or 4-5× diluted positive AZT (8 concentrations) was added. Each dilution was repeated in three wells. The cell control group was established. The cells were incubated in the incubator (37° C., 5% CO2, saturated humidity) and the cytopathy was observed everyday. Four days (96 hours) after administration, the supernatants were sucked out and stored at −20° C. to measure HIV-1-P24 antigen titer. The inhibition effect of the medicament was determined. The cells were dyed with MTT to measure the cytotoxicity.
2.2.2 Reed & Muench Method for Calculating CC50 and EC50 of Medicament in Cell Culture
Calculation Method of Selection Index (SI) of HIV-1 P24 Antigen in Cell Culture SI=CC50/EC50 3.

[8] = test system: human T lymphocytes H9 chronically infected with HIV-1 IIIB; experiment: cytotoxicity by MTT in H9 cells chronically infected with HIV-1 IIIB; conditions: H9 cell chronically infected with HIV-1 IIIB, 96 hours
[9] = test system: mycoplasma pneumoniae; experiment: bacteriostatic effect on mycoplasma pneumoniae; assay type: cell-based
[10] = test system: AZT-sensitive strain HIV-1 018a
[11] = test system: AZT-resistant strain HIV-1 018c; experiment: microbe, parasite or virus in culture; conditions: Human immunodeficiency virus 1, PBMC, 96 h, read-out: Median effective concentration (EC50), HIV-1 P24 antigen
[12] = cytotoxicity by MTT in HIV-infected PBMC culture; conditions: human, Median cytotoxicity concentration (CC50)
Experimental: as §1, §2

[13] = test system: candida and cryptococcus; experiment: in vitro antifungal test, candida and cryptococcus; assay type: cell-based
[14] = test system: dermatophyte; experiment: in vitro antifungal test, dermatophyte; assay type: cell-based
[15] = test system: Pseudallescheria boydii; experiment: in vitro antifungal test, Pseudallescheria boydii; assay type: cell-based
[16] = test system: aspergillus fumigatus, cryptococcus and red trichophyton; experiment: in vitro antifungal test, aspergillus fumigatus, cryptococcus and red trichophyton; assay type: cell-based
[17] = test system: Staphylococcus epidermidis; experiment: comparative MIC experiment, Staphylococcus epidermidis; assay type: cell-based
[18] = test system: Serratia marcescens; experiment: comparative MIC experiment, Serratia marcescens; assay type: cell-based
[19] = test system: Bacteroid; experiment: comparative MIC experiment, Bacteroid; assay type: cell-based
[20] = test system: Candida albicans; experiment: comparative MIC experiment, Candida albicans; assay type: cell-based
[21] = PBMC infected with AZT-resistant HIV-1 018c
[22] = PBMC infected with AZT-sensitive HIV-1 018a

For `CC(=O)O[C@H](CC=C(C)C)C1=CC(=O)c2c(O)ccc(O)c2C1=O` [acetylshikonin], the “solubility in DMSO” value ([1]; DMSO) was “soluble”, the solubility in water ([1]; water) was “insoluble” and the “Median effective concentration (EC50), HIV-1 P24 antigen” value (“Median effective concentration (EC50)” for short) ([2]; 96 hours) was over 1.25 ± 0 µg/mL. For the same molecule, the “Median cytotoxicity concentration (CC50)” value [3] was 0.49 ± 0.06 µg/mL, the “Selection index (CC50/EC50)” value ([4]; MT-4, HIV-1 IIIB) was 2.45 ± 0.51 and the “Median effective concentration (EC50)” value ([4]; MT-4, HIV-1 IIIB, 96 hours) was 0.20 ± 0.03 µg/mL. For the same molecule, the “Median cytotoxicity concentration (CC50)” value [5, 21] was 5.83 ± 0.38 µg/mL, the “Median cytotoxicity concentration (CC50)” value [5, 22] was 7.69 ± 0.19 µg/mL and the “Selection index (CC50/EC50)” value ([6]; PBMC, AZT-sensitive HIV-1 018a) was 6.50 ± 0.08. For the same molecule, the “Median effective concentration (EC50)” value ([6]; PBMC, AZT-sensitive HIV-1 018a, 96 hours) was 1.18 ± 0.03 µg/mL, the “Median effective concentration (EC50)” value ([7]; H9 cell chronically infected with HIV-1 IIIB, 96 hours) was over 0.25 ± 0 µg/mL and the “inhibition effect on HIV-1 IIIB chronically-infected H9 cells” value ([7]; two lots of tests) was “no inhibition effect”. The “Median cytotoxicity concentration (CC50)” value [8] was 1.77 ± 0.13 µg/mL.

In the case of `CC[C@H]1OC(=O)[C@H](C)[C@@H](O[C@H]2C[C@@](C)(OC)[C@@H](O)[C@H](C)O2)[C@H](C)[C@@H](O[C@@H]2O[C@H](C)C[C@H](N(C)C)[C@H]2O)[C@](C)(O)C[C@@H](C)C(=O)[C@H](C)[C@@H](O)[C@]1(C)O` [erythrocin, reference compound], the “concentration of equivalent inhibitory effect” value ([9]; comparator) is reported as 0.1925 µg/mL.

In the case of `Cc1cn([C@H]2C[C@H](N=[N+]=[N-])[C@@H](CO)O2)c(=O)[nH]c1=O` [AZT, Zidovudine, reference compound], the “Selection index (CC50/EC50)” value [10] is reported as 10275.78 ± 1530.22, the “Selection index (CC50/EC50)” value [2] is reported as 1895.40 ± 479.53 and the EC50 [11] is reported as 0.05 ± 0.01 µg/mL (≈ 0.187 µM). For the same molecule, the EC50 ([4]; Human immunodeficiency virus 1, IIIB, 96 h, read-out: Median effective concentration (EC50), HIV-1 P24 antigen) was 0.09 ± 0.003 µg/mL (≈ 0.337 µM), the “Selection index (CC50/EC50)” value ([4]; MT-4, HIV-1 IIIB) was 1808.33 ± 723.07 and the CC50 at 96 h [12, 21] was 88 ± 15.5 µg/mL (≈ 329 µM). For the same molecule, the CC50 at 96 h [12, 22] was 77.2 ± 20.9 µg/mL (≈ 289 µM), the EC50 ([6]; Human immunodeficiency virus 1, PBMC, 96 h, read-out: Median effective concentration (EC50), HIV-1 P24 antigen) was under 0.0064 µg/mL and the “Selection index (CC50/EC50)” value ([7]; H9 cell chronically infected with HIV-1 IIIB) was 83.65 ± 37.96. The EC50 ([7]; Human immunodeficiency virus 1, IIIB, H9, 96 h, read-out: Median effective concentration (EC50), HIV-1 P24 antigen) was 1.08 ± 0.24 µg/mL (≈ 4.04 µM).

For `CC(C)=CCC(OC(=O)C=C(C)C)C1=CC(=O)c2c(O)ccc(O)c2C1=O` (stereo not drawn) [β,β-dimethylacrylshikonin], the MIC [13] was 2.08 to 33.3 µg/mL, the MIC90 [13] was 33.3 µg/mL (≈ 89.9 µM) and the MIC [14] was 4.16 to 8.32 µg/mL. For the same molecule, the MIC90 [14] was 4.16 µg/mL (≈ 11.2 µM), the MIC [15] was 4.16-8.32 μg/mi and the MIC [16] was 3.0625 to 250 µg/mL. It also gave an MIC [17] of 0.391 µg/mL (≈ 1.06 µM), an MIC [18] of 0.781 µg/mL (≈ 2.11 µM) and an MIC [19] of 0.391 µg/mL (≈ 1.06 µM). It also gave an MIC [20] of 3.9062 µg/mL (≈ 10.5 µM) and an MIC [9] of 2 µg/mL (≈ 5.4 µM).
